From PMC8471306, “Chemical Changes of Hydroperoxy-, Epoxy-, Keto- and Hydroxy-Model Lipids under Simulated Gastric Conditions” (Foods, 2021)
Values joined by “and” are separate entries in the source; they are usually repeats but may differ in a detail not shown here. Equal entries are not always repeated. “Also recorded” adds a separate entry of the source.

How the values were obtained:
[1] = In vitro simulated gastric digestion of model lipid emulsions in SGF, quantitation by GC-FID; format: in vitro ADME
Protocol: Emulsions of model lipid compounds were prepared in a simulated gastric fluid (SGF) formulated as described in the United States Pharmacopeia. SGF contained 3.2% w/v pepsin in 0.03 M NaCl and 0.1 M HCl (pH 1.2). Different sample solutions of model lipid compounds in SGF were prepared and methyl C21:0 was added as an internal standard (IS) for quantitative purposes. Homogenization was performed in an Omnimixer (Sorvall, Newton, PA, USA) at 10,000 rpm for 5 min at 1-min intervals, as described elsewhere. […] Samples of 1, 2, 3 and 4 mL (~16 μmol mL^−1 of each compound) were used. • - Two methyl 9,10-epoxysteatate emulsions, i.e., 5 and 15 mg mL^−1, both with 10 mg mL^−1 of the IS, in SGF. Samples of 1, 2, 3 and 4 mL (16 and 46 μmol mL^−1) were used. • - Three methyl linoleate hydroperoxides emulsions, i.e., 5, 7.5 and 10 mg mL^−1, with 1, 1.5 and 2 mg mL^−1 of the IS, respectively. Additional methyl hydroperoxides emulsions at the same concentrations were prepared adjusting the pH to 3.0 and 6.6 with 1 M NaHCO3. Samples of 4 mL (15.3, 23.0 and 30.6 μmol mL^−1) were used.
Gastric digestion was simulated using a classical in vitro model. Emulsions of lipid model compounds prepared as described in Section 2.3. were used for digestion assays immediately after preparation. Triplicate emulsions were incubated in a shaking water bath for 3 h at 37 °C/100 rpm.
Lipids were thoroughly extracted with 1:1 hexane:diethyl ether after vigorous shaking in a vortex and centrifugation at 2000 rpm. Hexane and diethyl ether have been previously used for lipid extraction of oil-in-water emulsions. The extraction procedure was repeated three times and the organic extracts were pooled and washed with distilled water. After filtration through anhydrous sodium sulfate, the solvent was evaporated in a rotatory evaporator under reduced pressure at room temperature and the extracted lipids were dried using a stream of nitrogen.
Initial and digested samples were analyzed by gas-liquid chromatography using an HP 6890 Series chromatograph (Hewlett-Packard, Avondale, PA, USA) equipped with a split-splitless injector operating in the split mode with a 40:1 split ratio at 250 °C, a J&W DB-Wax fused-silica capillary column, 60 m × 0.25 mm I.D., film thickness 0.25 μm (J&W Scientific, Folsom, CA, USA) and a flame ionization detector that was used at 250 °C. The analyses were run using hydrogen as carrier gas at 1 mL min^−1 and under isothermal conditions using 230 °C for 25 min. Injections were carried out automatically using a 6890 Series autosampler (Agilent Technologies, Karlsruhe, Germany). A volume of 1 μL of sample dissolved in diethyl ether (~5 mg mL^−1) was analyzed.

[2] = rat, in vivo; cited from earlier work
[3] = equimolar mixture, 16 μmol mL^−1 each, sample volume 1 mL, SGF pH 1.2, 3 h 37 °C
[4] = equimolar mixture, 16 μmol mL^−1 each, sample volume 2 mL, SGF pH 1.2, 3 h 37 °C
[5] = equimolar mixture, 16 μmol mL^−1 each, sample volume 3 mL, SGF pH 1.2, 3 h 37 °C
[6] = equimolar mixture, 16 μmol mL^−1 each, sample volume 4 mL, SGF pH 1.2, 3 h 37 °C
[7] = tested alone, initial 15.79 μmol mL^−1, sample volume 1 mL, SGF pH 1.2
[8] = tested alone, initial 15.79 μmol mL^−1, sample volume 2 mL, SGF pH 1.2
[9] = tested alone, initial 15.79 μmol mL^−1, sample volume 3 mL, SGF pH 1.2
[10] = tested alone, initial 15.79 μmol mL^−1, sample volume 4 mL, SGF pH 1.2
[11] = tested alone, initial 46.03 μmol mL^−1, sample volume 1 mL, SGF pH 1.2
[12] = tested alone, initial 46.03 μmol mL^−1, sample volume 2 mL, SGF pH 1.2
[13] = tested alone, initial 46.03 μmol mL^−1, sample volume 3 mL, SGF pH 1.2
[14] = tested alone, initial 46.03 μmol mL^−1, sample volume 4 mL, SGF pH 1.2

Molecule: CCCCCCCCC1OC1CCCCCCCC(=O)OC (stereo not drawn) [methyl 9,10-epoxystearate, Methyl trans-9,10-epoxystearate]
- Losses after in vitro gastric digestion, range over all samples ([1]; all concentrations and sample volumes tested, SGF pH 1.2): 17.8–58.8%
- Final Concentration [1, 3]: 7.52 ± 0.73 a μmol mL^−1
- Loss % after Digestion [1, 3]: 52.7 ± 4.6 B %
- Final Concentration [1, 4]: 7.79 ± 0.65 ab μmol mL^−1
- Loss % after Digestion [1, 4]: 51.3 ± 4.0 AB %
- Final Concentration [1, 5]: 8.89 ± 0.43 b μmol mL^−1
- Loss % after Digestion [1, 5]: 44.4 ± 2.7 A %
- Final Concentration [1, 6]: 9.55 ± 0.40 b μmol mL^−1
- Loss % after Digestion [1, 6]: 40.3 ± 2.5 A %
- Final [9,10-Epoxystearate] [1, 7]: 6.50 ± 1.07 a μmol mL^−1
- Loss % after Digestion [1, 7]: 58.8 ± 6.8 D %
- Final [9,10-Epoxystearate] [1, 8]: 7.20 ± 0.80 ab μmol mL^−1
- Loss % after Digestion [1, 8]: 54.4 ± 5.0 CD %
- Final [9,10-Epoxystearate] [1, 9]: 8.00 ± 0.48 ab μmol mL^−1
- Loss % after Digestion [1, 9]: 49.3 ± 3.0 CD %
- Final [9,10-Epoxystearate] [1, 10]: 8.97 ± 0.60 b μmol mL^−1
- Loss % after Digestion [1, 10]: 43.2 ± 3.8 BC %
- Final [9,10-Epoxystearate] [1, 11]: 26.16 ± 2.24 a μmol mL^−1
- Loss % after Digestion [1, 11]: 43.2% and 43.2 ± 4.9 BC %
- Final [9,10-Epoxystearate] [1, 12]: 30.53 ± 1.48 a μmol mL^−1
- Loss % after Digestion [1, 12]: 33.7 ± 3.2 B %
- Final [9,10-Epoxystearate] [1, 13]: 35.06 ± 0.81 b μmol mL^−1
- Loss % after Digestion [1, 13]: 23.8 ± 1.8 A %
- Final [9,10-Epoxystearate] [1, 14]: 37.82 ± 1.96 b μmol mL^−1
- Loss % after Digestion [1, 14]: 17.8% and 17.8 ± 4.3 A %

Molecule: CCCCCCC(O)CCCCCCCCCCC(=O)OC (centres unmarked) [methyl 12-hydroxystearate]
- Final Concentration [1, 3]: 15.92 ± 0.40 c μmol mL^−1
- Final Concentration [1, 4]: 15.45 ± 1.03 c μmol mL^−1
- Final Concentration [1, 5]: 16.13 ± 0.39 c μmol mL^−1
- Final Concentration [1, 6]: 15.51 ± 1.13 c μmol mL^−1

Molecule: CCCCCCC(=O)CCCCCCCCCCC(=O)OC [methyl 12-oxostearate]
- Change after simulated gastric digestion (in words) ([1]; equimolar mixture, 16 μmol mL^−1 each, 1-4 mL, SGF pH 1.2): remained unaltered; also recorded: remained at the starting levels
- Final Concentration [1, 3]: 16.11 ± 0.21 c μmol mL^−1
- Final Concentration [1, 4]: 15.80 ± 0.37 c μmol mL^−1
- Final Concentration [1, 5]: 15.88 ± 0.73 c μmol mL^−1
- Final Concentration [1, 6]: 16.15 ± 0.58 c μmol mL^−1

Molecule: linoleic acid hydroperoxides
- Share decomposed to a variety of compounds in the stomach [2]: about 70%
